Columns and labels:
COX-1 = molecular target: T1, COX-1 (Ovis aries, UniProt P05979); assay: COX-1 inhibition, COX (ovine/human) inhibitor screening assay kit; assay type: biochemical
T1 construct: purchased Cayman Chemicals (bought through Sigma-Aldrich) 560131
T1 sequence (P05979 25-600): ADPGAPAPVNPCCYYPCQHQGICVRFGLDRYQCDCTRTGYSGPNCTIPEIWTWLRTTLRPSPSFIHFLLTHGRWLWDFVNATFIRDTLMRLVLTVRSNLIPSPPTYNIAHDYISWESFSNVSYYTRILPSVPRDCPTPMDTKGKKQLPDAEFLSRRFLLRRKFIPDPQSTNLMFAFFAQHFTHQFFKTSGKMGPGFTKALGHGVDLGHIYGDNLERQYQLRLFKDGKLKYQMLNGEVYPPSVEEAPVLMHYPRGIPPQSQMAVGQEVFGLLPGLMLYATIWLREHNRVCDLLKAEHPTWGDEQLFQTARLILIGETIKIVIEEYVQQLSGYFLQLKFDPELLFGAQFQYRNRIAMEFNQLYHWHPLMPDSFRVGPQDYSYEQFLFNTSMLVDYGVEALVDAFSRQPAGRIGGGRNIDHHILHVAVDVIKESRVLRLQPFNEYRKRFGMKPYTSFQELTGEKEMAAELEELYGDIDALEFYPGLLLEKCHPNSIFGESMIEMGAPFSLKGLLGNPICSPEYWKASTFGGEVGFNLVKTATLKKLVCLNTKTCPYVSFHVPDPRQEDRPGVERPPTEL
Experimental: Cell culture reagents were purchased from Euroclone (Milan, Italy). COX (ovine/human) inhibitor screening assay kit (Catalog No. 560131, Cayman Chemicals, Ann Arbor, MI, USA) was purchased from Sigma-Aldrich, Burlington, MA, USA. […] The other reagents were purchased from Sigma-Aldrich, Burlington, MA, USA.
The COX-1/2 inhibition screening experiments were carried out according to the manufacturer’s instructions. The plate was incubated for 60 min at r.t. under shaking and read with the Tecan Infinite 200 Microplate Reader at λ = 405 nm.
The graph between percent inhibition of the enzyme and corresponding concentration of the compound provided IC50 values for the probe compounds.

SKOV-3 xenograft tumors = assay: NIR fluorescence imaging / biodistribution in SKOV-3 s.c. xenograft models; assay type: in vivo, NSG mice; details: SKOV-3 s.c. mice, i.v.
Experimental: In addition to OVCAR-3, the COX-1 low expressing SKOV-3 cell line was subcutaneously xenografted to evaluate the specificity of RR11 and 23 (MSA14). RR11 exerted high tumor fluorescence already two hours after injection (n = 2) with similar organ biodistribution as already observed in OVCAR-3 xenografts (TBR = 1.28; Figure 4A and Figure 5A). 23 (MSA14) was evaluated at 6 and 24 h, with a dose of 100 µM and 500 µM in n = 4 SKOV-3 models. […] However, the tumor fluorescence intensity was not sufficient to discriminate between healthy organs and malignant tissue at low exposure times of 100 ms “ex vivo”. The fluorescence signal in COX-1 low-expressing SKOV-3 tumors might be an indication of non-specific compound accumulation.
Female NOD-scid IL2rγ^null (NSG) mice, aged 6 to 25 weeks were maintained under defined floral conditions and no more than five mice were housed in individually ventilated (HEPA-filtered air) cages, kept on a 12 h dark/night schedule at a constant temperature of 21 °C and at 50% relative humidity at the University of Bergen’s animal facility. Observations of body weight and general condition including activity levels, appearance, and food intake were monitored twice weekly, and humane endpoints were defined with the use of score sheets. When indicated, animals were euthanized according to institutional guidelines.
Single cell suspensions of SKOV-3 and OVCAR-3 ovarian cancer cells, cultured as previously described, were obtained by washing the adherent cells with PBS and detached with trypsin-EDTA for 3–5 min at 37 °C. For subcutaneous injection (s.c.), cells were resuspended in an ice-cold mixture of 100 µL per insulin syringe (3/10-cc with 30 g needle) comprising 50 μL saline, 25 µL medium, and 25 µL Matrigel (cat# 08-774-391, Corning Inc®, Fisher Scientific, Waltham, MA, USA). SKOV-3 and OVCAR-3 subcutaneous xenograft models were established through lateral flank injection of 5 × 10^6 cells and 1 × 10^6 cells, respectively, under 3.5% sevoflurane inhalation anesthesia (cat# 29960 SevoFlo, Zoetis, Louvain-la-Neuve, Belgium). Mice were imaged with RR11 and MSA14 when the caliper measurements reached 200–500 mm^3 (Volume = (height × width × length × π)/6).
“In vivo” and “ex vivo” FLI was performed with both COX-1 targeting compounds, the reference compound RR11 and the novel 23 (MSA14), at different concentrations and time points. Prior to FLI, mice were shaved to avoid autofluorescence background signal. The desired concentration (100 µM, 500 µM) of the compound stock solutions in DMSO were freshly diluted with PBS, before 100 µL was injected intravenously into the tail vein. FLI was performed with the IVIS Spectrum In Vivo Imaging System with a λabs 640 ± 15 nm bandpass filter (BP), λem 680 ± 10 nm BP for RR11, and λabs 745 ± 15 nm BP, λem 820 ± 10 nm BP for 23 (MSA14), 0.5–24 h after small molecule administration. All scans were acquired with epi-illumination and auto exposure. Regions of interest (ROI) were manually gated around the tumor, organs, or the whole ventral and lateral positioned mouse and calculated using the Living image software (Perkin Elmer). The ROI of the muscle at the flank region was used to calculate the tumor-to-background (TBR) ratios.

Row | SMILES | IC50 (COX-1) | inhibition at 50 µM (COX-1; at 50 µM compound final concentration, read-out: COX-1 % inhib.) | average TBR (SKOV-3 xenograft tumors; 6 h, 100 µM) | average TBR (SKOV-3 xenograft tumors; 6 h, 500 µM) | average TBR (SKOV-3 xenograft tumors; 24 h, 100 µM) | average TBR (SKOV-3 xenograft tumors; 24 h, 500 µM) | SI (selectivity index) (COX-1) | COX-1 % inhib. (COX-1; at 50 µM compound final concentration) | tumor-to-background ratio (TBR) (SKOV-3 xenograft tumors; two hours after injection)
1 | CCN1/C(=C/C=C/C=C/C=C/C2=[N+](CCCCCC(=O)NCCCCNC(=O)Cc3onc(-c4ccc(OC)cc4)c3-c3ccc(OC)cc3)c3ccc4ccccc4c3C2(C)C)C(C)(C)c2c1ccc1ccccc21 [23 (MSA14), 3-(6-(4-(2-(3,4-Bis(4-methoxyphenyl)isoxazole-5-yl)acetamido)butyl)amino-6-oxohexyl)-2-[7-(1,3-dihydro-1,1-dimethyl-3-ethyl-2H-benz[e]indolin-2-yl-idene)-1,3,5-heptatrienyl]-1,1-dimethyl-3-(6-carboxilato-hexyl)-1H-benz[e]indolium chloride] | 87 nM | 57% | 1.23 | 1.49 | 1.96 | 1.5 | – | – | –
2 | COc1ccc(-c2noc(CC(=O)NCCCCNc3cc4[o+]c5cc(N(C)C)ccc5nc4c4ccccc34)c2-c2ccc(OC)cc2)cc1.[Cl-] [RR11, N-[4-(9-dimethylimino-9H-benzo[a]phenoxazin-5-ylamino)butyl]-2-(3,4-bis(4-methoxyphenyl)isoxazol-5-yl)acetamide chloride, reference compound] | 32 nM | – | – | – | – | – | 75 | 83% | 1.28

From PMC9230671, “Fluorochrome Selection for Imaging Intraoperative Ovarian Cancer Probes” (Pharmaceuticals, 2022)
